Measurements from patent US8101761B2, “(E)-N-{3-[1-(8-fluoro-11H-10-OXA-1-AZA-dibenzo [A,D] cyclohepten-5ylidene)-propyl]-phenyl}-methanesulfonamide as glucocorticoid receptor modulator for the treatment of rheumatoid arthritis” (Eli Lilly and Company, priority 2008, dated 2012).
pKi: −log10 of the molar value.

Molecular target: T1, human GR (glucocorticoid receptor) (Homo sapiens, UniProt P04150)
T1 construct: expressed in transfected cells; host or cells: HEK293 (293-GR lysate)
T1 sequence (P04150 1-777): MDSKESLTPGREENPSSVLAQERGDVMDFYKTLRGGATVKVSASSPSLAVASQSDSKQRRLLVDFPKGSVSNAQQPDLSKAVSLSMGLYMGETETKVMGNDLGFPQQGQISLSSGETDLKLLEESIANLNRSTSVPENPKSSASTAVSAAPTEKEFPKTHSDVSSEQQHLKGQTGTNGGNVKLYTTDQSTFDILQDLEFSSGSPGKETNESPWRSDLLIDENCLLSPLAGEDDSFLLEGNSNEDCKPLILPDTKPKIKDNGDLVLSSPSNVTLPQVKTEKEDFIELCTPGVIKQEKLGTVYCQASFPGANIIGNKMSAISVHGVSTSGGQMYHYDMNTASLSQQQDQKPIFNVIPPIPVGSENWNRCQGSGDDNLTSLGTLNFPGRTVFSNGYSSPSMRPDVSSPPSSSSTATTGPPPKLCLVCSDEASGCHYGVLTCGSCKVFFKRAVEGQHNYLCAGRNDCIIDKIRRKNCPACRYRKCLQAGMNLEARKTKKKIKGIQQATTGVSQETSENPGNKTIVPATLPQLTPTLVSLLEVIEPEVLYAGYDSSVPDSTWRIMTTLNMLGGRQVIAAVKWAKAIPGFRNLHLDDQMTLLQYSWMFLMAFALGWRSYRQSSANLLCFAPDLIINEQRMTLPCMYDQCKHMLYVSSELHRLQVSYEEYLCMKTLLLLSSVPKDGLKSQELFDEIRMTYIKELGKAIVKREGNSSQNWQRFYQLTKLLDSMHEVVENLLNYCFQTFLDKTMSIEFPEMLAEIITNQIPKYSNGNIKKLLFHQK
Assay: Nuclear hormone receptor competition binding assay, GR
Protocol: Cell lysates from human embryonic kidney HEK293 cells overexpressing human GR (glucocorticoid receptor), AR (androgen receptor), MR (mineralocorticoid receptor), or PR (progesterone receptor) are used for receptor-ligand competition binding assays to determine Ki values.
Briefly, steroid receptor competition binding assays are run in a buffer containing 20 mM Hepes buffer (pH=7.6), 0.2 mM EDTA, 75 mM NaCl, 1.5 mM MgCl2, 20% glycerol, 20 mM sodium molybdate, 0.2 mM DTT (dithiothreitol), 20 μg/ml aprotinin and 20 μg/ml leupeptin. Typically, steroid receptor binding assays include radio-labeled ligands, such as 0.3 nM [^3H]-dexamethasone for GR binding, 0.36 nM [^3H]-methyltrienolone for AR binding, 0.25 nM [^3H]-aldosterone for MR binding, and 0.29 nM [^3H]-methyltrienolone for PR binding, and either 20 μg 293-GR lysate, 22 μg 293-AR lysate, 20 μg 293-MR lysate or 40 μg 293-PR lysate per well. Assays are typically run in 96-well format. Competing test compounds are added at various concentrations ranging from about 0.01 nM to 10 μM. Non-specific binding is determined in the presence of 500 nM dexamethasone for GR binding, 500 nM aldosterone for MR binding, or 500 nM methyltrienolone for AR and PR binding. […] After an incubation of 2 hours, plates are read in a Wallac Microbeta counter. […]

pKi (HEK293 lysate overexpressing human GR, [3H]-dexamethasone, mean of n=7): ~9.70
greater affinity for GR relative to each of human MR, AR, and PR (ratio of binding affinities): ≥ 15 fold
SMILES: CC/C(=C1\c2ccc(F)cc2OCc2ncccc21)c1cccc(NS(C)(=O)=O)c1 [Compound (I), (E)-N-{3-[1-(8-Fluoro-11H-10-oxa-1-aza-dibenzo[a,d]cyclohepten-5-ylidene)-propyl]-phenyl}-methanesulfonamide]
